# Source: US8168232B2, “Formulations and methods of using nitric oxide mimetics in cancer treatment” (priority 2000, dated 2012)
# Legend:
# [1] = test system: Bl6F10 metastatic melanoma cells; test: In vivo experimental metastasis (lung colonization) model; set-up: species or system C57BL6 mice
# Description: C57BL6 mice were injected i.v. (tail vein) with a bolus of 5×10^4-10^5 Bl6F10 metastatic melanoma cells. Immediately after the tail vein injection, mice were randomly divided into groups of 15 and mice in each group were placed in plexiglass chambers (approximately 3 L) which were continuously flushed with gas mixtures of 20% O2:balance N2 and 10% O2:balance N2, respectively. […] After a 24 hour exposure to an atmosphere of either 20% O2 or 10% O2, mice were removed from the chambers and placed in regular cages kept at room air. Thirteen days later, mice were sacrificed by cervical dislocation, and lungs were removed and fixed in Bouin's fixative (Sigma). Metastatic nodules (many of which appeared black due to the presence of melanin) on the surface of the lungs were counted visually under a dissecting microscope. Data were expressed as the number of lung nodules per 10^4 cells injected and were analyzed using statistical tests for non-parametric values.
# Cells were then removed from plates with trypsin and 5×10^4 cells were injected i.v. (tail vein) into C57BL6 female mice. Some of the cells treated in vitro were plated onto tissue culture dishes to determine colony-forming ability using the protocol described below in the Section I.J.
# Following harvesting from culture plates, 5×10^4 cells were injected intravenously (tail vein injections) into 5-7 week old C57Bl/6 female mice. Cells were also plated in tissue culture plates to determine the effect of culture conditions on in vitro colony forming ability. Fourteen days after intravenous inoculation, mice were sacrificed and their lungs were removed and fixed in Bouin's fixative. Both melanotic and amelanotic metastatic colonies were counted under a dissecting microscope. Data were expressed as the number of lung nodules per 5×10^4 viable cells injected (as determined by in vitro colony-forming ability) and were analyzed using statistical tests for non-parametric values.
# [2] = test system: metalloproteinase (gelatinase); test: Zymography of metalloproteinase (gelatinase) secretion by breast cancer cells; assay type: cell-based, human; settings: 10^−11 M GTN, 10^−12 M SNP
# Description: The cells were cultured using a serum-free medium (EX-CELL 300). Following incubation, the medium was extracted and centrifuged at 5,000 RPM for 5 minutes. The supernatant was subsequently collected and stored at −80° C. until further use. SDS-polyacrylamide gels were prepared in accordance with well-known procedures. For the analysis of metalloproteinase secretion, the gel contained 0.1% w/v gelatin, and for the analysis of plasminogen activator secretion, the gel was supplemented with 0.1% w/v casein as well as plasminogen (50 μg/mL). The serum-free conditioned medium was then combined with a nonreducing sample loading buffer (0.5 M Tris, 10% SDS, 1% Bromophenol Blue in 2 mL glycerol) in a ratio of 4:1 and was not boiled. Following electrophoresis, the gels underwent two 15 minute washes with 2.5% Triton X-100. This step removed the SDS. After the washes with H2O, the gels were incubated overnight at 37° C. in a solution containing Tris-HCl (pH 7.0) and CaCl2 (5 mM). The gels were stained with 0.4% Coomassie Brilliant Blue R-250 in 40% methanol/10% glacial acetic acid/50% distilled water for approximately 1 hour, and then destained for about 2 hours in 30% methanol/10% glacial acetic acid/60% distilled water. […]
# HIF-1 = HIF-1 accumulation and transactivating activity; assay type: cell-based; settings: high concentrations (0.1-1 mM); preliminary studies
# Source text: The promotor region of uPAR contains binding sites for transcription factors such as activator protein-1 (AP-1), Sp-1/3 and nuclear factor κB (NFκB).
# [3] = test system: soluble guanylyl cyclase (sGC) / cellular cGMP; test: cGMP ELISA (sGC activity) in MDA-MB-231 cells; assay type: cell-based, human
# Description: The effects of hypoxia and NO-mimetic treatment on sGC levels were determined using Western Blot analysis. To determine sGC activity, cGMP levels were measured. Briefly, cells were extracted over ice in 1 mL of 6% trichloroacetic acid (BDH Laboratory Supplies, Poole, England). The homogenate was then centrifuged at 13,000 g for 10 min. The supernatant fraction was removed and extracted five times with 2 mL of water-saturated diethyl ether (BDH). The cGMP contained in this fraction was subsequently acetylated and quantitated using an enzyme-linked immuno-sorbent assay (ELISA) kit (STI—Signal Transduction Products, San Clemente, Calif.).
# To determine the effect of hypoxia on cGMP levels, MDA-MB-231 breast carcinoma cells were incubated in 0.5% O2 for 6 hours in the presence of IBMX (500 μM).
smiles,measurement,setting,value
"O=[N+]([O-])OCC(CO[N+](=O)[O-])O[N+](=O)[O-] [GTN, glyceryl trinitrate]",decrease of hypoxia-stimulated lung nodule formation,"[1]; cells pre-treated in vitro 12 h, 1% O2, 2×10^−11 M GTN",85%
same,reduction of extent of metastasis,"[1]; cells pre-treated in vitro 12 h, 20% oxygen, 2×10^−11 M GTN",more than 60%
same,attenuation of L-NMMA metastatic response,[1]; concomitant GTN (10^−10 M) and L-NMMA,60%
same,gelatinases secreted vs untreated hypoxic cells,[2],decrease in gelatinases secreted
same,HIF-1 accumulation and transactivating activity,HIF-1,inhibit HIF-1 accumulation and transactivating activity
same,effect on hypoxic reduction of sGC activity (cGMP ELISA),"[3]; 0.5% O2, 2 hours, GTN (10^−10 M, 10^−6 M)",significantly prevented
same,effect of hypoxia on accumulated cGMP levels,"[3]; GTN 1 μM co-incubation, 0.5% O2 6 hours, IBMX 500 μM",prevented
same,effect on hypoxic reduction in cGMP levels,"[3]; GTN (1 mM) as printed, 6 hrs 0.5% O2, IBMX",completely prevented
